Measurements as given in patent US20220395553A1, “CXCR4 ANTAGONIST PEPTIDES” (COHBAR, INC., priority 2019, published 2022).
Square brackets hold non-standard residues; d marks the D form. Ends that are not written are not given here.

Key:
[1] = system: U937 cells; test: CXCL12 mediated cell migration, U937 cells; type: cell-based, human; conditions: Homo sapiens, U-937, 4 h, read-out: Percent Inhibition of CXCL12 Mediated Migration
Description: Peptides were initially prepared as 1 mM stock in H2O and tested at a final concentration of 1 μM. […] U937 cells were resuspended in serum free media containing 0.5% bovine serum albumin (RPMI+GlutaMax (Gibco/Thermo Fisher Scientific, Gaithersburg, Md.)) at density of 5×10^6 cells/ml. […] Following the 4 hour incubation period the filter inserts were carefully removed and the migration of cells across the filter into the bottom chamber (receiver wells) was determined by measuring ATP levels using Cell TiterGlo 2.0, according to manufacturer's instructions (Promega, Madison, Wis.); luminescence measured using a Cytation 3 plate reader (BioTek, Winooski, Vt.).

[2] = system: Jurkat cells; test: CXCL12 mediated cell migration, Jurkat cells; type: cell-based, human; conditions: Homo sapiens, Jurkat, 1 h, read-out: Percent Inhibition of CXCL12 Mediated Migration (1.1 μM Test Article)
How it was run: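 Jurkat cells in serum-free RPMI with 0.5% BSA, 250,000 per upper chamber of a 5 μm Transwell, with peptides at 1.1 μM final. Migration toward CXCL12 ran 1 h at 37 °C in 5% CO2. Cells reaching the lower chamber quantified by ATP luminescence (CellTiter-Glo 2.0).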

[3] = system: CXCR4/CXCL12 induced p-MEK; test: CXCR4/CXCL12 induced p-MEK in Jurkat cells (ELISA); type: cell-based, human; conditions: Homo sapiens, Jurkat, 5 min
How it was run: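 Jurkat cells in RPMI+GlutaMax containing 10% FBS and 1% penicillin/streptomycin, fresh or conditioned, were resuspended at 2×10^6 cells/ml and […] aliquots placed in tubes. After a 5 min stimulation they were pelleted, rinsed with HBSS and lysed with PMSF and protease/phosphatase inhibitors. Phospho-MEK1 (Ser217/221) was quantified by sandwich ELISA with absorbance read at 450 nm.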

[4] = system: B16F10, mouse melanoma cell line; test: Tumor growth in B16F10 syngeneic mouse cancer model; type: in vivo; conditions: peptide 10 mg/kg QD subcutaneous, temozolomide 50 mg/kg TIW oral gavage; for Mean (SEM) Percent Reduction in Tumor Volume vs Control: Day 11, relative to vehicle control; for Mean (SEM) Tumor Volume on Day 11: female C57Bl/6 mice, 8-10 animals per arm
Description: The effect of the peptides on tumor growth can be assessed by monitoring tumor volume in a syngeneic mouse cancer model, such as B16F10, mouse melanoma cell line. The study was performed by HD Biosciences/WuXi (San Diego, Calif.). B16F10 cells were expanded in culture for a maximum of five passages prior to implantation, until growing exponentially when harvested. On Day 0, B16F10 cells (0.2×10^6 cells in […] serum free media; >95% viable tumor cells) were implanted into the right hind flank of female C57Bl/6 mice. When a mean tumor volume of approximately 100 mm^3 (range 75-125 mm^3) was reached, tumor-bearing animals were randomized and treatments were initiated on the same day. Test peptides were resuspended in phosphate buffered saline (PBS) and administered once daily (QD) by subcutaneous injection at 10 mg/kg in 5.0 ml/kg vehicle. Vehicle (PBS) was administered QD by intraperitoneal injection in 5 ml/kg. Temozolomide was administered three times per week (TIW) by oral gavage at 50 mg/kg in 5.0 ml/kg vehicle. Animals were inspected daily over the course of 11 days for abnormalities. Tumor volumes were determined by calliper measurements twice per week and calculated according to the formula: V (mm^3)=W^2×L/2 (L=length and W=the perpendicular width of the tumor, L>W). Data are presented as the mean (SEM) of 8-10 animals per arm for tumor volume on Day 11 and percent decrease in tumor volume relative to vehicle control treatment. Treatment with a combination of test peptide and temozolomide produced a greater reduction in tumor volume compared to either vehicle control treatment or treatment with temozolomide alone.

[5] = system: C2C12 Mouse Myoblasts; test: Glucose utilization in C2C12 mouse myoblasts; type: cell-based; conditions: metformin 1 mM
Description: The effect of the peptides on glucose metabolism can be assessed using an assay of glucose utilization in cultured cultured cells such as mouse myoblasts. Peptides were initially prepared as 10 mM stock in DMSO and used at a final concentration of 10 μM (0.1% DMSO). C2C12 mouse myoblast cell line was purchased from American Type Culture Collection (Manassas, Va.). C2C12 cultures were maintained at 37° C. in a humidified atmosphere of 5% CO2/95% air with medium changes every second day. C2C12 cells were grown in DMEM (1 g/L glucose) supplemented with 10% FBS with 100 IU/ml penicillin and 100 μg/ml streptomycin. C2C12 cells were seeded at 7,000 cells per well on 96-well plates and cultured to confluence. Once the cell reached confluence the media was changed to DMEM (1 g/L glucose) supplemented with 2% HS with 100 IU/ml penicillin and 100 μg/ml streptomycin and maintained at 37° C. in a humidified atmosphere of 5% CO2/95% air, 5 days post-induction of differentiation fresh DMEM (1 g/L glucose) supplemented with 2% HS with 100 IU/ml penicillin and 100 μg/ml streptomycin was added to cultures. Cells were maintained at 37° C. in a humidified atmosphere of 5% CO2 and 95% air for 5 hours. After 5 hours test peptides at 10 μM or controls (0.5 mM or 1 mM metformin in 1% DMSO) prepared in fresh differentiation medium were added to cells and the cultures were maintained at 37° C. in a humidified atmosphere of 5% CO2/95% air for 18-22 hours. At the end of the incubation culture media was removed from the cells and the remaining glucose concentration was measured using a Glucose Assay kit (Abcam) according to the manufacturer's instructions, using a Cytation 3 plate reader at 570 nm (BioTek, Winooski, Vt.). Glucose concentrations in the medium were calculated relative to 0.1% DMSO treated control cells. The relative standard deviation of the result for the 0.1% DMSO treated control was <20%. Metformin was used as a positive control for reduction of glucose levels (increased glucose utilization glucose levels for treatment with metformin (1 mM) treatment were <20% of the 0.1% DMSO treated control value. The results are reported in Table 7.

[6] = system: SH-SY5Y Neuroblastoma Cells; test: ATP levels (CellTiter-Glo); type: cell-based, human; conditions: staurosporine 1 μM
Description: The effect of the peptides on cellular metabolism can be assessed using an assay of ATP levels in cultured cells such as human neuroblastoma cells. Peptides were initially prepared as 10 mM stock in DMSO and used at a final concentration of 10 μM (0.1% DMSO). […] CellTiter-Glo® Assay kit was purchased from Promega. SH-SY5Y human bone marrow neuroblastoma cell line was purchased from American Type Culture Collection (Manassas, Va.) and licensed from Memorial Sloan-Kettering Cancer Center (New York, N.Y.). SH-SY5Y cells were grown in DMEM/F12 medium supplemented with 10% FBS with 100 IU/ml penicillin and 100 μg/ml streptomycin. Cultures were maintained at 37° C. in a humidified atmosphere of 5% CO2/95% air. SH-SY5Y cells were seeded at 30,000 cells per well on 96-well plates. […] ATP levels were determined using a CellTiter-Glo Assay kit (Promega) according to the manufacturer's instructions. Luminescence for each sample well on the plate was measured using a Cytation 3 plate reader (BioTek, Winooski, Vt.). Activity was calculated relative to 0.1% DMSO treated control. The relative standard deviation of the result for the 0.1% DMSO treated control was <5%.

[7] = Cell viability, PrestoBlue assay; type: cell-based; conditions: human; read-out: Cell viability, % of background corrected DMSO control value
Description: The effect of the peptides on cell viability can be assessed in cultured cells using suitable assay of viability such as the PrestoBlue® assay (Thermo Fisher Scientific, Waltham, Mass.). Peptides were initially prepared as 10 mM stock in DMSO and tested at a final concentration of 10 μM (0.1% DMSO). […] PrestoBlue Assay Reagent was purchased from Thermo Fisher Scientific. A172 human brain glioblastoma cell line was purchased from American Type Culture Collection (Manassas, Va.). A172 cells were grown in DMEM supplemented with 10% FBS with 100 IU/ml penicillin and 100 μg/ml streptomycin. Cultures were maintained at 37° C. in a humidified atmosphere of 5% CO2/95% air. A172 cells were seeded at 8,000 cells per well on 96-well plates. […] Cell viability was determined using a PrestoBlue Assay reagent […] according to the manufacturer's instructions. Absorption for each sample well on the plate was measured using a Cytation 3 plate reader at 560 nm and 590 nm (BioTek, Winooski, Vt.). Activity was calculated relative to 0.1% DMSO untreated control. Treatment with 0.1% DMSO alone was used as the cell viability activity control. The relative standard deviation of the DMSO control was <5%.

[8] = system: Rat H-4-II-E Cells; test: TBHP-induced reactive oxygen species (DCFDA); type: cell-based; conditions: sulforaphane 10 uM
Description: The protective or synergistic effect of the peptides on cellular levels of reactive oxygen species (ROS) induced by oxidative stress can be assessed using an assay of ROS in cultured cells exposed to a suitable oxidative stress. Peptides were initially prepared as 10 mM stock in DMSO and tested at a final concentration of 10 μM (0.1% DMSO). […] TBHP was used at final concentration of […]. Sulforaphane was used at a final concentration of 10 uM as a protective antioxidant control against TBHP induced ROS production. DCFDA Cellular ROS Detection Assay kit was purchased from […]. H-4-II-E rat liver hepatoma cell line was purchased from American Type Culture Collection (Manassas, Va.). H-4-II-E cells were grown in DMEM supplemented with 10% FBS with 100 IU/ml penicillin and 100 μg/ml streptomycin. Cultures were maintained at 37° C. in a humidified atmosphere of 5% CO2/95% air. H-4-II-E cells were seeded at 15,000-20,000 cells per well on 96-well plates. The next day cells were incubated with test peptides at 10 μM in 0.1% DMSO or sulforaphane at 10 uM and maintained at 37° C. in a humidified atmosphere of 5% CO2/95% air for 18-20 hours. After 18-20 hours of incubation the cells were loaded with DCFDA for 45 min. TBHP at 100 μM was then added to the appropriate wells for 1 hour. ROS activity was determined using a DCFDA Cellular ROS Detection Assay kit (Abcam) according to the manufacturer's instructions. Fluorescence in each sample well on the plate was measured using a Cytation 3 plate reader at Ex/Em=485/535 nm (BioTek, Winooski, Vt.). Activity was calculated relative to TBHP control. […] Activity was calculated relative to THBP treated control.

[9] = system: 3T3-L1 Mouse Adipocytes; test: Free fatty acid levels in cultured mouse adipocytes; type: cell-based; conditions: insulin 100 nM
Description: The effect of the peptides on fatty acid metabolism can be assessed using an assay of free fatty acid levels in cultured cells such as mouse adipocytes. Peptides were initially prepared as 10 mM stock in DMSO and used at a final concentration of 10 μM (0.1% DMSO). […] Mouse 3T3-L1 cells purchased from ZenBio were seeded at 3,000 cells per well in 96-well plates in Pre-adipocyte Medium (Zen-Bio) and grown to confluence at 37° C. in a humidified atmosphere of 5% CO2/95% air. Two days after confluence, cells were placed in Adipocyte Differentiation Medium (Zen-Bio) and cultured for three additional days at 37° C. in a humidified atmosphere of 5% CO2/95% air. The culture media was then replaced with Adipocyte Maintenance Medium (Zen-Bio) and the cells maintained for an additional 9-12 days at 37° C. in a humidified atmosphere of 5% CO2/95% air with partial medium replacement every other day. Following 12-15 days of differentiation, test peptides were added at a final concentration of 10 μM in 0.1% DMSO and incubated for 20-22 hours in Adipocyte Maintenance Medium at 37° C. in a humidified atmosphere of 5% CO2/95% air. After 20-22 hours, 1 nM isoproterenol was added to all wells except untreated controls and test peptides were replenished. Insulin at 100 nM was added to control wells. Cells were incubated for 3 hours in Assay Buffer (Zen-Bio) at 37° C. in a humidified atmosphere of 5% CO2/95% air. Free fatty acid concentrations in the media were determined using a Free Fatty Acid Assay kit (Zen-Bio) according to the manufacturer's instructions using a Cytation 3 plate reader at 540 nm (BioTek, Winooski, Vt.). Absorbance values were corrected for untreated background and expressed relative to isoproterenol treated cells. Treatment with isoproterenol (1 nM) alone was used as the free fatty acid level stimulatory control. The relative standard deviation of the isoproterenol control was <10%. […] Free fatty acid levels for insulin (100 nM) treatment were <5% of the isoproterenol control value.

c1cc(CN2CCCNCCNCCCNCC2)ccc1CN1CCCNCCNCCCNCC1 [AMD3100, reference compound]
inhibition at 30 µM [1]: 99%
inhibition at 1.1 µM [2]: 91%
inhibition at 0.1 µM ([3]; read-out: Percent Inhibition of CXCR4/CXCL12 Induced p-MEK (100 nM Test Article)): 79%
inhibition at 1 µM ([3]; read-out: Percent Inhibition of CXCR4/CXCL12 Induced p-MEK (1 μM Test Article)): 91%

Cn1nnc2c(C(N)=O)ncn2c1=O [Temozolomide, reference compound]
Mean (SEM) Percent Reduction in Tumor Volume vs Control [4]: 37.9%
Mean (SEM) Tumor Volume on Day 11 [4]: 1190 mm^3

CN(C)C(=N)N=C(N)N [metformin, Metformin, reference compound]
Glucose levels, % of 0.1% DMSO treated control value [5]: < 20%

CN[C@@H]1C[C@H]2O[C@@](C)([C@@H]1OC)n1c3ccccc3c3c4c(c5c6ccccc6n2c5c31)C(=O)NC4 [staurosporine, Staurosporine, reference compound]
ATP levels, % of 0.1% DMSO treated control value [6]: < 5%
viability at 1 µM [7]: < 75%

C[S+]([O-])CCCCN=C=S (stereo not drawn) [sulphorophane, Sulforaphane, reference compound]
ROS levels, % of the THBP-induced ROS level [8]: 45.5%

Insulin [reference compound]
Free fatty acid levels, % of isoproterenol control value [9]: < 5%

LERYHHS(dA)RSSLRPYT (LERYHHS[dA]RSSLRPYT) [SEQ ID NO: 5]
Mean (SEM) Percent Reduction in Tumor Volume vs Control [4]: 7.2%
Mean (SEM) Tumor Volume on Day 11 [4]: 1770 mm^3

LERYHHSVRSSLRPYTK (LERYHHSVRSSLRPYTK-NH2) [SEQ ID NO: 4]
Mean (SEM) Percent Reduction in Tumor Volume vs Control [4]: 14.9%
Mean (SEM) Tumor Volume on Day 11 [4]: 1620 mm^3
